Measurements: PubChem BioAssay AID516

Target: Biliverdin reductase A (Homo sapiens) (UniProt P53004)
Assay: BLVRA binders by thermal stabilization, biophysical, DSF, SYPRO orange, recombinant protein (AID 516)
Conditions: at 10 µM, buffer 10 mM HEPES, pH 7.5, NaCl 150 mM, active compounds read high

Sequence of Biliverdin reductase A (Homo sapiens) (P53004 whole entry, looked up): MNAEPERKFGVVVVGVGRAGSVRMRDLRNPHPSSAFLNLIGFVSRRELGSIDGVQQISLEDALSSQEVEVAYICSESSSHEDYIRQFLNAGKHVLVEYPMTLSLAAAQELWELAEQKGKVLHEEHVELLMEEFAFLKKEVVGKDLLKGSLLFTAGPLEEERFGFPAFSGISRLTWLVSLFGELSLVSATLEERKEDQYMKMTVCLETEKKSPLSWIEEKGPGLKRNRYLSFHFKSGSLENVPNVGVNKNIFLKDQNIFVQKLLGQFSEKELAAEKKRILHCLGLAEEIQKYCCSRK

Tm shift: 3.8 Celsius
SMILES: C=CC1=C(C)/C(=C/c2[nH]c(Cc3[nH]c(/C=C4\NC(=O)C(C)=C4C=C)c(C)c3CCC(=O)O)c(CCC(=O)O)c2C)NC1=O
